# Source: patent US9994546B2, “Cyclopropylamines as LSD1 inhibitors” (Incyte Corporation, priority 2014, dated 2018)
# Biological target: LSD-1 enzyme (Homo sapiens (Human), UniProt O60341)
# Assay: LANCE LSD1/KDM1A demethylase assay (LSD1 histone demethylase biochemical assay)
# Conditions: 1 nM LSD-1 enzyme, 1 hour preincubation at 25° C., 0.4 μM biotin-labeled Histone H3 peptide substrate
# Description: LANCE LSD1/KDM1A demethylase assay—10 μL of 1 nM LSD-1 enzyme (ENZO BML-SE544-0050) in the assay buffer (50 mM Tris, pH 7.5, 0.01% Tween-20, 25 mM NaCl, 5 mM DTT) were preincubated for 1 hour at 25° C. with 0.8 μL compound/DMSO dotted in black 384 well polystyrene plates. […] After stopping the reactions plates were incubated for 30 minutes and read on a PHERAstar FS plate reader (BMG Labtech).
row,SMILES,IC50 [nM]
1,"N#CCC1(N2CCC(N[C@H]3C[C@@H]3c3ccccc3)CC2)CNC1 [Example 61, [3-(4-{[(1S,2R)-2-phenylcyclopropyl]amino}piperidin-1-yl)azetidin-3-yl]acetonitrile]",≤ 100
2,"O=C(O)CC1(N2CCC(N[C@@H]3C[C@H]3c3ccccc3)CC2)CN(Cc2cncnc2)C1 [Example 126, [3-(4-{[(1R,2S)-2-phenylcyclopropyl]amino}piperidin-1-yl)-1-(pyrimidin-5-ylmethyl)azetidin-3-yl]acetic acid]",≤ 100
3,"N#CCC1(N2CCC(N[C@@H]3C[C@H]3c3ccccc3)CC2)CN(c2ncccc2C#N)C1 (relative stereo) [Example 10, 2-(3-(Cyanomethyl)-3-{4-[(trans-2-phenylcyclopropyl)amino]piperidin-1-yl}azetidin-1-yl)nicotinonitrile]",≤ 100
4,"CNC(=O)CC1(N2CCC(C)(CN[C@@H]3C[C@H]3c3ccccc3)CC2)CCC1 [Example 57, N-methyl-2-{1-[4-methyl-4-({[(1R,2S)-2-phenylcyclopropyl]amino}methyl)piperidin-1-yl]cyclobutyl}acetamide]",≤ 100
5,"O=C(O)CC1(N2CCC(N[C@@H]3C[C@H]3c3ccccc3)CC2)CN(CCC(F)(F)F)C1 [Example 130, [3-(4-{[(1R,2S)-2-phenylcyclopropyl]amino}piperidin-1-yl)-1-(3,3,3-trifluoropropyl)azetidin-3-yl]acetic acid]",≤ 100
6,"N#CCC1(N2CCC(N[C@@H]3C[C@H]3c3ccccc3)CC2)CN(C(=O)[C@H]2CC[C@H](O)CC2)C1 [Example 82, [1-[(trans-4-hydroxycyclohexyl)carbonyl]-3-(4-{[(1R,2S)-2-phenylcyclopropyl]amino}piperidin-1-yl)azetidin-3-yl]acetonitrile]",≤ 100
7,"N#CCC1(N2CCC(N[C@@H]3C[C@H]3c3ccccc3)CC2)CN(C(=O)[C@H]2CCOC2)C1 [Example 115, {3-(4-{[(1R,2S)-2-phenylcyclopropyl]amino}piperidin-1-yl)-1-[(3S)-tetrahydrofuran-3-ylcarbonyl]azetidin-3-yl}acetonitrile]",≤ 100
8,"N#CCC1(N2CC(CN[C@@H]3C[C@H]3c3ccccc3)C2)CCNCC1 (relative stereo) [Example 16, [4-(3-{[(trans-2-Phenylcyclopropyl)amino]methyl}azetidin-1-yl)piperidin-4-yl]acetonitrile]",≤ 100
9,"O=C(O)CC1(N2CCC(N[C@@H]3C[C@H]3c3ccccc3)CC2)CN(Cc2cncs2)C1 [Example 128, [3-(4-{[(1R,2S)-2-phenylcyclopropyl]amino}piperidin-1-yl)-1-(1,3-thiazol-5-ylmethyl)azetidin-3-yl]acetic acid]",≤ 100
10,"N#CCC1(N2CCC(CN[C@@H]3C[C@H]3c3ccccc3)CC2)CN(C(=O)Nc2ccc(F)cc2F)C1 (relative stereo) [Example 42, 3-(Cyanomethyl)-N-(2,4-difluorophenyl)-3-(4-{[(trans-2-phenylcyclopropyl)amino]methyl}piperidin-1-yl)azetidine-1-carboxamide]",≤ 100
11,"CCS(=O)(=O)N1CC(CCO)(N2CCC(N[C@@H]3C[C@H]3c3ccccc3)CC2)C1 [Example 92, 2-[1-(ethylsulfonyl)-3-(4-{[(1R,2S)-2-phenylcyclopropyl]amino}piperidin-1-yl)azetidin-3-yl]ethanol]",≤ 100
12,"N#CCC1(N2CCC(N[C@@H]3C[C@H]3c3ccccc3)CC2)CN(c2ccc(C(=O)O)cc2C#N)C1 (relative stereo) [Example 11, 3-Cyano-4-(3-(cyanomethyl)-3-{4-[(trans-2-phenylcyclopropyl)amino]piperidin-1-yl}azetidin-1-yl)benzoic acid]",100 to 500
13,"N#CCC1(N2CCC(N[C@@H]3C[C@H]3c3ccccc3)CC2)CN(C(=O)c2cscn2)C1 [Example 119, [3-(4-{[(1R,2S)-2-phenylcyclopropyl]amino}piperidin-1-yl)-1-(1,3-thiazol-4-ylcarbonyl)azetidin-3-yl]acetonitrile]",≤ 100
14,"CNC(=O)CC1(N2CCC(N[C@@H]3C[C@H]3c3ccccc3)CC2)CN(C(=O)OC)C1 [Example 95, methyl 3-[2-(methylamino)-2-oxoethyl]-3-(4-{[(1R,2S)-2-phenylcyclopropyl]amino}piperidin-1-yl)azetidine-1-carboxylate]",≤ 100
15,"N#CCC1(N2CCC(CN[C@@H]3C[C@H]3c3ccccc3)CC2)CN(c2ccc(C#N)cc2)C1 (relative stereo) [Example 40, 4-[3-(Cyanomethyl)-3-(4-{[(trans-2-phenylcyclopropyl)amino]methyl}piperidin-1-yl)azetidin-1-yl]benzonitrile]",≤ 100
16,"COC(=O)N1CC(CC#N)(N2CCC(CN[C@@H]3C[C@H]3c3ccccc3)CC2)C1 (relative stereo) [Example 41, Methyl 3-(cyanomethyl)-3-(4-{[(trans-2-phenylcyclopropyl)amino]methyl}piperidin-1-yl)azetidine-1-carboxylate]",≤ 100

row,SMILES,IC50 [nM]
1,"N#CCC1(N2CCC(CN[C@@H]3C[C@H]3c3ccccc3)CC2)CN(C(=O)c2cccc(F)c2)C1 (relative stereo) [Example 47, [1-(3-Fluorobenzoyl)-3-(4-{[(trans-2-phenylcyclopropyl)amino]methyl}piperidin-1-yl)azetidin-3-yl]acetonitrile]",≤ 100
2,"CN1CCC(CC#N)(N2CC(CN[C@@H]3C[C@H]3c3ccccc3)C2)CC1 (relative stereo) [Example 17, [1-Methyl-4-(3-{[(trans-2-phenylcyclopropyl)amino]methyl}azetidin-1-yl)piperidin-4-yl]acetonitrile]",≤ 100
3,"CS(=O)(=O)N1CC(CC#N)(N2CCC(N[C@@H]3C[C@H]3c3ccccc3)CC2)C1 (relative stereo) [Example 9, (1-(Methylsulfonyl)-3-{4-[(trans-2-phenylcyclopropyl)amino]piperidin-1-yl}azetidin-3-yl)acetonitrile]",≤ 100
4,"N#CCC1(N2CCC(N[C@@H]3C[C@H]3c3ccccc3)CC2)CN(Cc2ccccc2)C1 (relative stereo) [Example 4, (1-Benzyl-3-{4-[(trans-2-phenylcyclopropyl)amino]piperidin-1-yl}azetidin-3-yl)acetonitrile]",≤ 100
5,"N#CCC1(N2CCC(N[C@@H]3C[C@H]3c3ccccc3)CC2)CN(C(=O)N2CCC(O)CC2)C1 [Example 87, [1-[(4-hydroxypiperidin-1-yl)carbonyl]-3-(4-{[(1R,2S)-2-phenylcyclopropyl]amino}piperidin-1-yl)azetidin-3-yl]acetonitrile]",≤ 100
6,"CNC(=O)CN1CC(CC#N)(N2CCC(N[C@@H]3C[C@H]3c3ccccc3)CC2)C1 [Example 78, 2-[3-(cyanomethyl)-3-(4-{[(1R,2S)-2-phenylcyclopropyl]amino}piperidin-1-yl)azetidin-1-yl]-N-methylacetamide]",≤ 100
7,"N#CCC1(N2CCC(N[C@@H]3C[C@H]3c3ccccc3)CC2)CN(CCC(=O)O)C1 (relative stereo) [Example 5, 3-(3-(Cyanomethyl)-3-{4-[(trans-2-phenylcyclopropyl)amino]piperidin-1-yl}azetidin-1-yl)propanoic acid]",≤ 100
8,"N#CCC1(N2CCC(CN[C@@H]3C[C@H]3c3ccccc3)CC2)CNC1 (relative stereo) [Example 33, [3-(4-{[(trans-2-Phenylcyclopropyl)amino]methyl}piperidin-1-yl)azetidin-3-yl]acetonitrile]",≤ 100
9,"CCS(=O)(=O)N1CC(CC#N)(N2CCC(N[C@@H]3C[C@H]3c3ccccc3)CC2)C1 [Example 62, [1-(ethylsulfonyl)-3-(4-{[(1R,2S)-2-phenylcyclopropyl]amino}piperidin-1-yl)azetidin-3-yl]acetonitrile]",≤ 100
10,"CNS(=O)(=O)N1CC(CC#N)(N2CCC(N[C@@H]3C[C@H]3c3ccccc3)CC2)C1 [Example 64, 3-(cyanomethyl)-N-methyl-3-(4-{[(1R,2S)-2-phenylcyclopropyl]amino}piperidin-1-yl)azetidine-1-sulfonamide]",≤ 100
11,"CCN1CC(CC(=O)O)(N2CCC(N[C@@H]3C[C@H]3c3ccccc3)CC2)C1 [Example 67, [1-ethyl-3-(4-{[(1R,2S)-2-phenylcyclopropyl]amino}piperidin-1-yl)azetidin-3-yl]acetic acid]",≤ 100
12,"N#CCC1(N2CCC(NC3CC3c3ccccc3)CC2)CCC1 (racemic) [Example 1, (1-{4-[(trans-2-Phenylcyclopropyl)amino]piperidin-1-yl}cyclobutyl)acetonitrile]",≤ 100
13,"CN(C)S(=O)(=O)N1CC(CC#N)(N2CCC(N[C@@H]3C[C@H]3c3ccccc3)CC2)C1 [Example 63, 3-(cyanomethyl)-N,N-dimethyl-3-(4-{[(1R,2S)-2-phenylcyclopropyl]amino}piperidin-1-yl)azetidine-1-sulfonamide]",≤ 100
14,"C[C@H](NC(=O)c1cc(F)c(N2CC(CC#N)(N3CC(CNC4CC4c4ccccc4)C3)C2)cc1F)C(F)(F)F (stereo partly drawn) [Example 27, 4-(3′-(Cyanomethyl)-3-{[(trans-2-phenylcyclopropyl)amino]methyl}-1,3′-biazetidin-1′-yl)-2,5-difluoro-N-[(1S)-2,2,2-trifluoro-1-methylethyl]benzamide]",≤ 100
15,"O=C(O)CC1(N2CCC(N[C@@H]3C[C@H]3c3ccccc3)CC2)CN(Cc2cscn2)C1 [Example 127, [3-(4-{[(1R,2S)-2-phenylcyclopropyl]amino}piperidin-1-yl)-1-(1,3-thiazol-4-ylmethyl)azetidin-3-yl]acetic acid]",≤ 100
16,"CC(C)NC(=O)c1cc(F)c(N2CC(CC#N)(N3CCC(CN[C@@H]4C[C@H]4c4ccccc4)CC3)C2)cc1F (relative stereo) [Example 35, 4-[3-(Cyanomethyl)-3-(4-{[(trans-2-phenylcyclopropyl)amino]methyl}piperidin-1-yl)azetidin-1-yl]-2,5-difluoro-N-isopropylbenzamide]",≤ 100
